Source: article PMC12543283, “TastepepAI: An artificial intelligence platform for taste peptide de novo design” (PLOS Computational Biology, 2025)
Ends that are not written are not given here.

Legend:
[1] = tested on: human bronchial epithelial cells (BEAS-2B)
[2] = Electronic tongue analysis (Taste-Sensing System SA 402B); set-up: unit not given here; settings: reference solution 30 mM KCl + 0.3 mM tartaric acid as baseline, first measurement excluded; for Umami: sensor AAE; for Umami / Bitter / Sweet: detection threshold 0, room temperature; for Umami / Bitter / Sour / Salty: four replicates; for Sour: detection threshold -13, room temperature; for Salty: detection threshold -6, room temperature; for Sweet: measured five times
Procedure, shortened: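 Room-temperature electronic-tongue readings with five taste probes, calibrated against a reference of 30 mM KCl and 0.3 mM tartaric acid. Samples at 0.1 mg/mL and 1.0 mg/mL were measured four times, sweetness five times, and the first run was dropped. Detection cut-offs were sour −13, salty −6, others 0.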

[3] = tested on: human embryonic kidney cells (HEK293T)
[4] = tested on: human pancreatic ductal epithelial cells (HPNE)
Method: The cytotoxicity of 73 synthetic peptides was evaluated using four human cell lines: human pancreatic ductal epithelial cells (HPNE), human embryonic kidney cells (HEK293T), human umbilical vein endothelial cells (HUVEC), and human bronchial epithelial cells (BEAS-2B). When cell density reached 70% confluence, the complete culture medium was replaced with serum-free maintenance medium, and peptides were added at a final concentration of 100 μM for 36 h. Control groups received only serum-free maintenance medium without peptides. Cell proliferation was assessed using the CCK-8 assay kit (Solarbio, CA1210) according to the manufacturer’s instructions.

[5] = tested on: human umbilical vein endothelial cells (HUVEC)

| Substance | Average cell viability, BEAS-2B [1] | Cell viability, BEAS-2B, Data1 [1] | Cell viability, BEAS-2B, Data2 [1] | Cell viability, BEAS-2B, Data3 [1] | Umami ([2]; peptide 0.1 mg/mL) | Umami ([2]; peptide 1 mg/mL) | Bitter ([2]; sensor C00, peptide 0.1 mg/mL) | Bitter ([2]; sensor C00, peptide 1 mg/mL) | Sour ([2]; sensor CA0, peptide 0.1 mg/mL) | Sour ([2]; sensor CA0, peptide 1 mg/mL) | Salty ([2]; sensor CT0, peptide 0.1 mg/mL) | Salty ([2]; sensor CT0, peptide 1 mg/mL) | Sweet ([2]; sensor GL1, peptide 0.1 mg/mL) | Sweet ([2]; sensor GL1, peptide 1 mg/mL) | Average cell viability, HEK293T [3] | Cell viability, HEK293T, Data1 [3] | Cell viability, HEK293T, Data2 [3] | Cell viability, HEK293T, Data3 [3] | Average cell viability, HPNE [4] | Cell viability, HPNE, Data1 [4] | also measured |
| --- | --- | --- | --- | --- | --- | --- | --- | --- | --- | --- | --- | --- | --- | --- | --- | --- | --- | --- | --- | --- | --- |
| TDPELV [TaPep60] | 110.77 | 105.88 | 117.95 | 108.47 | 1.33 | -5.30 | 7.64 | 3.00 | -2.65 | 12.51 | -20.71 | 9.00 | 5.70 | -9.69 | 103.06 | 105.62 | 98.99 | 104.57 | 111.81 | 114.61 | Cell viability, HPNE, Data2 [4]: 113.81; Cell viability, HPNE, Data3 [4]: 107.02; Average cell viability, HUVEC [5]: 102.29; Cell viability, HUVEC, Data1 [5]: 91.72; Cell viability, HUVEC, Data2 [5]: 106.41; Cell viability, HUVEC, Data3 [5]: 108.73 |
| TIDDELR [TaPep26] | 102.16 | 95.61 | 106.68 | 104.19 | 1.71 | -4.35 | 7.26 | 3.16 | -3.53 | 10.93 | -21.44 | 8.38 | 5.51 | -3.99 | 99.46 | 96.81 | 98.23 | 103.34 | 94.58 | 84.76 | Cell viability, HPNE, Data2 [4]: 94.94; Cell viability, HPNE, Data3 [4]: 104.03; Average cell viability, HUVEC [5]: 104.87; Cell viability, HUVEC, Data1 [5]: 103.54; Cell viability, HUVEC, Data2 [5]: 102.74; Cell viability, HUVEC, Data3 [5]: 108.33 |
| TPRKQ [TaPep37] | 100.23 | 95.41 | 110.47 | 94.82 | 1.93 | -5.88 | 7.34 | 3.28 | -4.03 | 12.49 | -13.82 | 15.18 | 4.01 | -5.26 | 100.47 | 100.50 | 96.44 | 104.48 | 94.98 | 108.02 | Cell viability, HPNE, Data2 [4]: 84.26; Cell viability, HPNE, Data3 [4]: 92.65; Average cell viability, HUVEC [5]: 107.80; Cell viability, HUVEC, Data1 [5]: 111.04; Cell viability, HUVEC, Data2 [5]: 111.52; Cell viability, HUVEC, Data3 [5]: 100.82 |
